Tests used:
[1] = Multicomponent pharmacokinetics in rat plasma after i.v. safflower injection (SI); details: for concentration at 15 min / AUC(0-inf) / AUC(0-t) / Cmax / MRT inf / MRT last / Vd / clearance / half-life: male, Sprague-Dawley, rat, plasma; for concentration at 15 min: intravenous; for AUC(0-inf) / AUC(0-t) / Cmax / MRT inf / MRT last / Vd / clearance / half-life: iv
Description: The animal experiments were approved by the Animal Care and Use Committee of the College of Animal Science (College of Bee Science), Fujian Agriculture and Forestry University (Approval Number: PZCASFAFU21012). 250 ± 20 g of male Sprague-Dawley (SD) rats were provided by Lab Animal Center in Fujian Medical University (Fuzhou, China).
Ten rats were divided into three groups (Low dose group, n = 4; medium and high groups, n = 3, respectively). […] For each rat, 2 ml of physiological saline was supplemented after 30 min sampling via intraperitoneal injection. The plasma samples were obtained by centrifugation at 3,000 rpm for 10 min and stored at −20°C until analysis.
Clear supernatant (5 μl) was injected into HPLC-MS for bioanalysis.
The sample was separated on a RD-C18 column (4.6 mm × 50 mm, 3.5 μm, Zhongpu Develop, China). The mobile phase incudes water with 0.1% acetic acid (A) and acetonitrile (B). […] The column temperature, flow rate and injection volume were set at 30°C, 0.5 ml/min and 5 μl, respectively.
Non-compartmental model was used to calculate the PK parameters by DAS 3.0 software (Chinese Pharmacologic Society, Beijing, China). A single-tailed t-test was carried out in the study.

[2] = Stability in diluted SI at room temperature; details: analyzed at 0, 2, 4, 8, 12, 24, and 48 h
[3] = tested on: H9c2 cardiomyocytes injured by H2O2; assay: TMT quantitative proteomics of H2O2-injured cardiomyocytes; format: cell-based; details: 195 μM
Description: The procedures for cell culture, group and administration are similar to those in “2.7. […] Briefly, the difference is that H9c2 cells were seeded and cultured in a culture flask with a bottom area of 25 cm^2 with a density 1×10^5 cells/ml. After treatment, about 3×10^7 cells per group were collected for the next quantitative proteomics investigation, which was done by Jingjie PTM Biolabs (Hangzhou, China). All the procedures for quantitative proteomics can be found in the section of “5. Quantitative proteomics” of the Supplementary Material.
The quantitative proteomics study was carried out according to our previous report ([Li et al., 2022]). Relative quantitative values of proteins in two samples were compared via t-test. […] The identified difference proteins between groups were subjected further to principal component analysis (PCA). […] The subcellular structure location was analyzed using these proteins as objectives.

[4] = tested on: H9c2 cardiomyocytes injured by H2O2; assay: Protection of cardiomyocytes injured by H2O2 (MTT); format: cell-based
Description: H9c2 cardiomyocytes obtained from Cell Bank of the Chinese Academy of Sciences (Shanghai, China) were cultured in DMEM (high glucose) supplemented with 1% P/S and 15% FBS in 5% CO2 at 37°C. The cells were collected with 0.25% trypsin, followed by re-seeding in 96-well multiplates with a density of 5×10^3 cells per well. The cell experiments were grouped as follows: normal group, model group (H2O2), administration groups and positive control groups (N-Acetyl-L-cysteine, NAC). […] After that, cells were incubated with 0.5 mg/ml of MTT for 4 h under standard condition, followed by addition of 150 µl DMSO into every well. The cell supernatants were finally removed and the optical density (OD) was recorded at 570 nm using a microplate reader (Thermo Fisher Scientific, United States). The protection rate of the compounds on H9c2 cardiomyocytes was calculated as (OD valueadministration group (or NAC group)-OD valuemodel group)/(OD valuenormal group-OD valuemodel group) ×100%.

[5] = Stability of 6 compounds of SI in rat plasma; details: for 10h in auto-sampler vials RE: extracted rat plasma; for 6h at room temperature RE / Freeze-thaw stability (three cycles) RE / Long-term stability (-80℃,15 days) RE: rat plasma
Description: The LC-MS method was validated by linearity, limits of detection (LOD), limits of quantification (LOQ), precision, accuracy, extraction recovery, matrix effect and stability of the 6 ingredients in rat plasma. Calibration curves were plotted using weighted linear regression of the peak area ratio of analyte to the IS against the corresponding nominal concentration of the analyte. LOD and LOQ were defined as the detectable concentration at which the ratio of signal to noise was more than 3 and 10, respectively. Intra- and inter-day accuracy and precision were assessed by detecting quality control (QC) samples using five replicates of rat samples at three concentration levels on one or three validation days, respectively. Accuracy and precision were expressed by relative error (RE) and relative standard deviation (RSD), respectively. The extraction recovery and matrix effect of the 6 components at above-mentioned three concentration levels were determined. Stability was assessed under the condition of placing un-treated plasma samples at room temperature for 6 h, and extracted plasma samples in auto-sampler for 10 h, as well as placing plasma samples within freeze-thaw three cycles and at −80 °C for 15 days.

Compound `Nc1nc2c(ncn2[C@@H]2O[C@H](CO)[C@@H](O)[C@H]2O)c(=O)[nH]1` [guanosine] has a concentration at 15 min ([1]; 2 ml/kg) of less than 0.5 ng/mL.
With `O=C(O)/C=C/c1ccccc1` [trans-cinnamic acid] the “Stability RSD” value [2] was 1.86%.
In the case of `Nc1ccn([C@@H]2O[C@H](CO)[C@@H](O)[C@H]2O)c(=O)n1` [cytidine], the “Stability RSD” value [2] is reported as 1.85% and the concentration at 15 min ([1]; 2 ml/kg) is reported as less than 0.5 ng/mL.
With hydroxysafflor yellow A [HSYA] the “proteins significantly downregulated vs. M group” value ([3]; fold change ≤1/1.5, p <0.05) was 205 proteins, the “proteins significantly upregulated vs. M group” value ([3]; fold change ≥1.5, p <0.05) was 148 proteins and the KEGG pathway regulation ([3]; vs. M group) was “downregulated the ribosome pathway and upregulated the lysosome pathway”. For the same compound, the “changed protein expression located at the cytoplasm” value ([3]; vs. M group) was 41.64%, the “changed protein expression located at the nucleus” value ([3]; vs. M group) was 27.48% and the “cell viability vs. model group” value ([4]; 10 μM, pretreated 24 h, 250 μM H2O2 2 h) was “higher cell viability than the model group”. The “anti-H2O2 injury effect (protection rate)” value ([4]; 1, 5 and 10 μM) was “concentration-dependent” and the protection rate ([4]; […] μM, preliminary test at maximum detected plasma concentration) was “about 26%”.
For `O=C(O)/C=C/c1ccc(O)cc1` [p-CA, p-coumaric acid], the “Stability RSD” value [2] was 3.29%, the “10h in auto-sampler vials RE” value ([5]; spiked 150 ng/mL) was -6.50% and the “10h in auto-sampler vials RE” value ([5]; spiked 400 ng/mL) was 0.06%. The “10h in auto-sampler vials RE” value ([5]; spiked 10000 ng/mL) was -4.10%, the “6h at room temperature RE” value ([5]; spiked 150 ng/mL) was -2.67% and the “Freeze-thaw stability (three cycles) RE” value ([5]; spiked 150 ng/mL) was 0.13%. The “Long-term stability (-80℃,15 days) RE” value ([5]; spiked 150 ng/mL) was -0.13%, the “6h at room temperature RE” value ([5]; spiked 400 ng/mL) was -2.50% and the “Freeze-thaw stability (three cycles) RE” value ([5]; spiked 400 ng/mL) was 3.70%. The “Long-term stability (-80℃,15 days) RE” value ([5]; spiked 400 ng/mL) was 1.40%, the “6h at room temperature RE” value ([5]; spiked 10000 ng/mL) was -2.72% and the “Freeze-thaw stability (three cycles) RE” value ([5]; spiked 10000 ng/mL) was -1.55%. The “Long-term stability (-80℃,15 days) RE” value ([5]; spiked 10000 ng/mL) was 6.82%, the protection ([4]; 8.5 μM, preliminary test at maximum detected plasma concentration) was “absence of protection” and the “detection in rat plasma” value ([1]; 1 h after administration (2 ml/kg of SI), preliminary test) was “can be detected”. The AUC(0-inf) ([1]; 1 ml/kg) was 67.7 ± 57.2 ng·h/mL, the AUC(0-t) ([1]; 1 ml/kg) was 62.5 ± 50 ng·h/mL and the Cmax ([1]; 1 ml/kg) was 305 ± 147 ng/mL. For the same compound, the MRT inf ([1]; 1 ml/kg) was 7.2 ± 4.2 min, the MRT last ([1]; 1 ml/kg) was 6 ± 3 min and the Vd ([1]; 1 ml/kg) was 0.11 ± 0.03 L/kg. It also gave a clearance ([1]; 1 ml/kg) of 20.2 mL/min/kg, a half-life ([1]; 1 ml/kg) of 4.8 ± 3 min and an AUC(0-inf) ([1]; 2 ml/kg) of 277 ± 84 ng·h/mL. It also gave an AUC(0-t) ([1]; 2 ml/kg) of 265 ± 89.7 ng·h/mL, a Cmax ([1]; 2 ml/kg) of 715 ± 85.8 ng/mL and an MRT inf ([1]; 2 ml/kg) of 19.8 ± 0.6 min. It also gave an MRT last ([1]; 2 ml/kg) of 16.2 ± 1.8 min, a Vd ([1]; 2 ml/kg) of 0.13 ± 0.07 L/kg and a clearance ([1]; 2 ml/kg) of 6.67 mL/min/kg. The half-life ([1]; 2 ml/kg) was 13.2 ± 3.6 min, the AUC(0-inf) ([1]; 4 ml/kg) was 469 ± 38.1 ng·h/mL and the AUC(0-t) ([1]; 4 ml/kg) was 433 ± 44.5 ng·h/mL. The Cmax ([1]; 4 ml/kg) was 1260 ng/mL, the MRT inf ([1]; 4 ml/kg) was 19.2 ± 2.4 min and the MRT last ([1]; 4 ml/kg) was 15 ± 2.4 min. The Vd ([1]; 4 ml/kg) was 0.14 ± 0.03 L/kg, the clearance ([1]; 4 ml/kg) was 7.5 mL/min/kg and the half-life ([1]; 4 ml/kg) was 12.6 ± 3 min.
With `Nc1ncnc2c1ncn2[C@@H]1O[C@H](CO)[C@@H](O)[C@H]1O` [adenosine] the “Stability RSD” value [2] was 2.74% and the concentration at 15 min ([1]; 2 ml/kg) was less than 0.5 ng/mL.

Reference: paper PMC9727182, “Identification of pharmacokinetic markers for safflower injection using a combination of system pharmacology, multicomponent pharmacokinetics, and quantitative proteomics study” (Frontiers in Pharmacology, 2022)
